# PubChem BioAssay (NCI)
#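 Method: 48-hour compound exposure of cells in 96-well plates, five concentrations, linear interpolation of endpoints. The concentration for 50% growth inhibition is given as GI50. Definition used: TGI = concentration required for complete inhibition of growth.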
# What was measured:
# Assay in all cases: NCI-60 cell line screen, 48 h
# NCI/ADR-RES ovarian = test system: NCI/ADR-RES ovarian
# RXF 393 renal = test system: RXF 393 renal
# ACHN renal = test system: ACHN renal
# T-47D breast = test system: T-47D breast
# BT-549 breast = test system: BT-549 breast
# OVCAR-5 ovarian = test system: OVCAR-5 ovarian
# COLO 205 colon = test system: COLO 205 colon
# NCI-H226 lung = test system: NCI-H226 lung
# HOP-92 NSCLC = test system: HOP-92 NSCLC
# SF-539 CNS = test system: SF-539 CNS
structure (smiles),measurement,setting,value
Cc1cc(C(=O)CCCCOc2ccc(C3=NCCO3)cc2)c(C)n1C,TGI,NCI/ADR-RES ovarian,> 100 µM
same,TGI,RXF 393 renal,72.8 µM
same,TGI,ACHN renal,> 100 µM
same,TGI,T-47D breast,65.6 µM
same,TGI,BT-549 breast,> 100 µM
same,TGI,OVCAR-5 ovarian,> 100 µM
same,TGI,COLO 205 colon,> 100 µM
same,TGI,NCI-H226 lung,98 µM
O=C1NCC2(CCN(CCCC3(c4ccc(F)cc4)OCCO3)CC2)N1c1ccccc1,TGI,NCI/ADR-RES ovarian,> 100 µM
same,TGI,RXF 393 renal,> 100 µM
same,TGI,ACHN renal,> 100 µM
same,TGI,T-47D breast,> 100 µM
same,TGI,OVCAR-5 ovarian,> 100 µM
same,TGI,COLO 205 colon,> 100 µM
same,TGI,HOP-92 NSCLC,> 100 µM
same,TGI,SF-539 CNS,> 100 µM
same,TGI,NCI-H226 lung,> 100 µM
CC1CCC(C(=O)O)(C(Br)C(=O)O)CC1 (centres undefined),TGI,NCI/ADR-RES ovarian,> 100 µM
same,TGI,RXF 393 renal,> 100 µM
same,TGI,ACHN renal,> 100 µM
same,TGI,BT-549 breast,> 100 µM
same,TGI,OVCAR-5 ovarian,> 100 µM
same,TGI,HOP-92 NSCLC,> 100 µM
same,TGI,NCI-H226 lung,> 100 µM
Oc1ccc([I+]c2ccccc2)cc1O,TGI,NCI/ADR-RES ovarian,> 100 µM
same,TGI,RXF 393 renal,> 100 µM
same,TGI,ACHN renal,> 100 µM
same,TGI,BT-549 breast,> 100 µM
same,TGI,OVCAR-5 ovarian,> 100 µM
same,TGI,COLO 205 colon,> 100 µM
same,TGI,HOP-92 NSCLC,28.9 µM
same,TGI,SF-539 CNS,91.2 µM
same,TGI,NCI-H226 lung,> 100 µM
CN(C)c1ccc(S(=O)Nc2ccccc2)cc1 (centres undefined),TGI,NCI/ADR-RES ovarian,> 100 µM
same,TGI,ACHN renal,> 100 µM
same,TGI,T-47D breast,65.6 µM
same,TGI,BT-549 breast,28.9 µM
same,TGI,OVCAR-5 ovarian,> 100 µM
same,TGI,COLO 205 colon,63.1 µM
same,TGI,SF-539 CNS,> 100 µM
same,TGI,NCI-H226 lung,> 100 µM
COc1cc(/C=C/C(=O)CC(=O)/C=C/c2ccc(OC(=O)CCCCC3CCSS3)c(OC)c2)ccc1OC(=O)CCCCC1CCSS1 (centres undefined),TGI,NCI/ADR-RES ovarian,> 100 µM
same,TGI,RXF 393 renal,> 100 µM
same,TGI,ACHN renal,> 100 µM
same,TGI,BT-549 breast,> 100 µM
same,TGI,OVCAR-5 ovarian,> 100 µM
same,TGI,COLO 205 colon,> 100 µM
same,TGI,SF-539 CNS,> 100 µM
same,TGI,NCI-H226 lung,> 100 µM
O=c1[nH]c(Nc2nc3ccccc3[nH]2)nc(O)c1-c1ccccc1,TGI,NCI/ADR-RES ovarian,> 100 µM
same,TGI,RXF 393 renal,> 100 µM
same,TGI,ACHN renal,> 100 µM
same,TGI,BT-549 breast,> 100 µM
same,TGI,OVCAR-5 ovarian,> 100 µM
same,TGI,COLO 205 colon,> 100 µM
same,TGI,HOP-92 NSCLC,> 100 µM
same,TGI,SF-539 CNS,> 100 µM
same,TGI,NCI-H226 lung,> 100 µM
Cc1nc(N)c(N2CCN([N+](=O)[O-])CC2)c(=O)[nH]1,TGI,NCI/ADR-RES ovarian,> 100 µM
same,TGI,ACHN renal,> 100 µM
same,TGI,T-47D breast,> 100 µM
same,TGI,BT-549 breast,> 100 µM
same,TGI,OVCAR-5 ovarian,> 100 µM
same,TGI,COLO 205 colon,> 100 µM
same,TGI,SF-539 CNS,> 100 µM
same,TGI,NCI-H226 lung,> 100 µM
CSc1nsc(-c2ccccc2)[s+]1,TGI,RXF 393 renal,> 100 µM
same,TGI,ACHN renal,> 100 µM
same,TGI,COLO 205 colon,> 100 µM
same,TGI,SF-539 CNS,> 100 µM
same,TGI,NCI-H226 lung,> 100 µM
CCN(CC)CCN(C(=Nc1ccccc1)N1CCOCC1)c1ccccc1,TGI,NCI/ADR-RES ovarian,> 100 µM
same,TGI,RXF 393 renal,> 100 µM
same,TGI,T-47D breast,> 100 µM
same,TGI,BT-549 breast,> 100 µM
same,TGI,COLO 205 colon,> 100 µM
same,TGI,SF-539 CNS,> 100 µM
same,TGI,NCI-H226 lung,> 100 µM
Cc1cccc2c1CC1(C2)Cc2c(C)cccc2C1=O (centres undefined),TGI,NCI/ADR-RES ovarian,> 100 µM
same,TGI,RXF 393 renal,38.1 µM
same,TGI,ACHN renal,84.3 µM
same,TGI,T-47D breast,> 100 µM
same,TGI,OVCAR-5 ovarian,> 100 µM
same,TGI,COLO 205 colon,29.7 µM
same,TGI,HOP-92 NSCLC,41.9 µM
same,TGI,SF-539 CNS,57.1 µM
same,TGI,NCI-H226 lung,61 µM
CN(C)C1(N(C)C)Oc2c(c(=O)n(C)c(=O)n2C)C(c2ccc(Br)cc2)C1(F)F (centres undefined),TGI,NCI/ADR-RES ovarian,> 100 µM
same,TGI,RXF 393 renal,> 100 µM
same,TGI,ACHN renal,> 100 µM
same,TGI,T-47D breast,> 100 µM
same,TGI,BT-549 breast,> 100 µM
same,TGI,OVCAR-5 ovarian,> 100 µM
same,TGI,COLO 205 colon,> 100 µM
same,TGI,HOP-92 NSCLC,> 100 µM
same,TGI,NCI-H226 lung,> 100 µM
Cc1ccc(C(=C2Sc3ccccc3S2)C(=C2Sc3ccccc3S2)c2ccc(C)s2)s1,TGI,NCI/ADR-RES ovarian,> 100 µM
same,TGI,RXF 393 renal,> 100 µM
same,TGI,ACHN renal,> 100 µM
same,TGI,T-47D breast,> 100 µM
same,TGI,BT-549 breast,> 100 µM
same,TGI,OVCAR-5 ovarian,> 100 µM
same,TGI,COLO 205 colon,> 100 µM
same,TGI,NCI-H226 lung,> 100 µM
CO[C@H]1/C=C(/C)CCC[C@H](C)[C@H](O)[C@@H](C)C(=O)C(C)(C)[C@@H](O)CC(=O)O[C@@H]1/C(C)=C/c1csc(C)n1,GI50,NCI/ADR-RES ovarian,0.0252 µM
same,TGI,NCI/ADR-RES ovarian,0.128 µM
same,GI50,RXF 393 renal,0.0187 µM
same,TGI,RXF 393 renal,0.0725 µM
same,GI50,ACHN renal,0.0555 µM
same,TGI,ACHN renal,> 100 µM
same,GI50,T-47D breast,0.0668 µM
same,TGI,T-47D breast,> 100 µM
same,GI50,BT-549 breast,0.0498 µM
same,TGI,BT-549 breast,> 100 µM
same,GI50,OVCAR-5 ovarian,0.0436 µM
same,TGI,OVCAR-5 ovarian,> 100 µM
same,GI50,COLO 205 colon,0.0159 µM
same,TGI,COLO 205 colon,0.0755 µM
same,GI50,HOP-92 NSCLC,0.038 µM
same,TGI,HOP-92 NSCLC,> 100 µM
same,GI50,NCI-H226 lung,0.0324 µM
same,TGI,NCI-H226 lung,> 100 µM
O=C(Nc1nccs1)c1c(O)nc2sccn2c1=O,TGI,NCI/ADR-RES ovarian,> 10 µM
same,TGI,RXF 393 renal,> 10 µM
same,TGI,ACHN renal,> 10 µM
same,TGI,T-47D breast,> 10 µM
same,TGI,OVCAR-5 ovarian,> 10 µM
same,TGI,COLO 205 colon,> 10 µM
same,TGI,SF-539 CNS,> 10 µM
same,TGI,NCI-H226 lung,> 10 µM
CCCSCC(P(=O)(O)O)P(=O)(O)O,TGI,NCI/ADR-RES ovarian,> 100 µM
same,TGI,RXF 393 renal,> 100 µM
same,TGI,OVCAR-5 ovarian,> 100 µM
same,TGI,COLO 205 colon,> 100 µM
same,TGI,HOP-92 NSCLC,> 100 µM
same,TGI,SF-539 CNS,> 100 µM
same,TGI,NCI-H226 lung,> 100 µM
COc1ccc(-c2nc(SCC(=O)N/N=C/c3ccc(N(C)C)cc3)[nH]c2-c2ccc(OC)cc2)cc1,TGI,NCI/ADR-RES ovarian,> 100 µM
same,TGI,RXF 393 renal,> 100 µM
same,TGI,ACHN renal,> 100 µM
same,TGI,T-47D breast,> 100 µM
same,TGI,BT-549 breast,> 100 µM
same,TGI,OVCAR-5 ovarian,> 100 µM
same,TGI,COLO 205 colon,24.5 µM
same,TGI,HOP-92 NSCLC,> 100 µM
same,TGI,SF-539 CNS,> 100 µM
CCOP(=O)(OCC)C(c1ccc(F)cc1)N(C(=O)NC(F)(F)F)c1ccc(OC)cc1 (centres undefined),TGI,NCI/ADR-RES ovarian,> 100 µM
same,TGI,RXF 393 renal,> 100 µM
same,TGI,ACHN renal,> 100 µM
same,TGI,OVCAR-5 ovarian,> 100 µM
same,TGI,COLO 205 colon,> 100 µM
same,TGI,SF-539 CNS,> 100 µM
same,TGI,NCI-H226 lung,> 100 µM
COc1ccc(C2=N/C(=C\c3ccccc3)C(=O)O2)cc1,TGI,NCI/ADR-RES ovarian,43.4 µM
same,TGI,RXF 393 renal,> 100 µM
same,TGI,ACHN renal,> 100 µM
same,TGI,OVCAR-5 ovarian,> 100 µM
same,TGI,HOP-92 NSCLC,> 100 µM
same,TGI,SF-539 CNS,> 100 µM
same,TGI,NCI-H226 lung,98.1 µM
CC1OC(OC2C(OC(=O)[C@]34CCC(C)(C)C[C@H]3C3=CC[C@@H]5[C@@]6(C)CC[C@H](OC7OC(C(=O)O)C(O)C(O)C7O)C(C)(C)[C@@H]6CC[C@@]5(C)[C@]3(C)C[C@H]4O)OCC(O)C2O)C(O)C(OC2OCC(O)(CO)C2O)C1OC1OCC(O)C(O)C1O (some centres undefined),TGI,NCI/ADR-RES ovarian,27.9 µM
same,TGI,RXF 393 renal,31.5 µM
same,TGI,ACHN renal,17.4 µM
same,TGI,T-47D breast,26.4 µM
same,TGI,BT-549 breast,17.3 µM
same,TGI,OVCAR-5 ovarian,22.9 µM
same,TGI,COLO 205 colon,3.36 µM
same,TGI,HOP-92 NSCLC,26.7 µM
same,TGI,NCI-H226 lung,28.3 µM
CCCC(=O)OC1CC(n2cc(F)c(=O)[nH]c2=O)OC1COP(=O)(OCC(Cl)(Cl)Cl)OCC(Cl)(Cl)Cl (centres undefined),TGI,NCI/ADR-RES ovarian,> 31.6 µM
same,TGI,ACHN renal,> 96 µM
same,TGI,T-47D breast,> 31.6 µM
same,TGI,OVCAR-5 ovarian,> 100 µM
same,TGI,COLO 205 colon,59 µM
same,TGI,HOP-92 NSCLC,> 100 µM
same,TGI,NCI-H226 lung,> 100 µM
O=C(CC(C(=O)c1ccsc1)c1ccc2c(c1)OCO2)c1ccccc1 (centres undefined),TGI,NCI/ADR-RES ovarian,> 100 µM
same,TGI,RXF 393 renal,> 100 µM
same,TGI,ACHN renal,> 100 µM
same,TGI,T-47D breast,> 100 µM
same,TGI,OVCAR-5 ovarian,> 100 µM
same,TGI,COLO 205 colon,> 100 µM
same,TGI,HOP-92 NSCLC,> 100 µM
same,TGI,SF-539 CNS,> 100 µM
same,TGI,NCI-H226 lung,> 100 µM
c1c[nH]c(-c2ccc(-c3ccc[nH]3)c3nsnc23)c1,TGI,NCI/ADR-RES ovarian,> 93.2 µM
same,TGI,RXF 393 renal,> 66.8 µM
same,TGI,ACHN renal,> 86.8 µM
same,TGI,BT-549 breast,> 100 µM
same,TGI,OVCAR-5 ovarian,> 96.1 µM
same,TGI,COLO 205 colon,> 65.9 µM
same,TGI,HOP-92 NSCLC,> 100 µM
same,TGI,SF-539 CNS,> 76.8 µM
same,TGI,NCI-H226 lung,> 100 µM
